Measurements published in patent US9977309B2, “Electrophoretic fluid” (Merck Patent GmbH, priority 2013, dated 2018).

Test: Saturation solubility of dyes in decane
Type: physicochemical

SMILES | Saturation wt % in decane [wt %]
CCCCCCCCCCCCCCCCCCN(CCCCCCCCCCCCCCCCCC)c1cc(NC(C)=O)c(/N=N/c2c(C#N)cc([N+](=O)[O-])cc2C#N)cc1OC [Dye 1] | 0.003
CCCCCCCCN(CCCCCCCC)c1ccc(/N=N/c2snc(C)c2C#N)c(NC(C)=O)c1 [Dye 4] | 0.19
CCCCCCCCCCCCCCc1ccc(/N=N/c2c(C)c(C#N)c(=O)n(CC(CC)CCCC)c2O)cc1 (stereo not drawn) [Dye 5] | 1.03

More lines, now with the values ahead:

Saturation wt % in decane [wt %] | SMILES
3.72 | CCCCCCCCCCCCCCc1ccc(/N=N/c2c(C)cc(=O)n(CC(CC)CCCC)c2O)cc1 (stereo not drawn) [Dye 6]
9.95 | CCCCc1ccc(/N=N/c2ccc(N(CCCC)CCCC)cc2)cc1 [Dye 7]
10.50 | CCCCCCCCN(CCCCCCCC)c1ccc(/N=N/c2ccc([N+](=O)[O-])cc2)c(C)c1 [Dye 8]
